Experimental data taken from US20250268826A1, “IONIZABLE LIPIDOID COMPOSITIONS AND THERAPEUTIC USES THEREOF” (Flagship Pioneering Innovations VII, LLC, priority 2023, published 2025).
Each block holds one compound with its values, some of them ahead of it.

How the values were obtained:
Assay type in all cases: physicochemical
[1] = LNP size and polydispersity index (PDI) by dynamic light scattering (DLS)
[2] = LNP Zeta potential measured using a Zetasizer (Malvern); settings: for Zeta potential: hEPO mRNA, N:P 6; for Zeta potential (mV): LNP with hEPO mRNA, N:P ratio 6
[3] = Encapsulation efficiency (EE %) by fluorescence based Ribogreen assay
[4] = Table 5, LNP 50:10:38.5:1.5 mol %, hEPO mRNA, N:P 6
[5] = Table 5, LNP Lipid:DSPC:Cholesterol:DMG-PEG2k 50:10:38.5:1.5 mol %, hEPO mRNA, N:P 6
[6] = Table 5, LNP 50:10:38.5:1.5 mol %
[7] = Table 8, LNP 50:10:38.5:1.5 mol %, hEPO mRNA, N:P 6
[8] = Table 8, LNP Lipid:DSPC:Cholesterol:DMG-PEG2k 50:10:38.5:1.5 mol %, hEPO mRNA, N:P 6
[9] = Table 8, LNP 50:10:38.5:1.5 mol %
[10] = Table 11, LNP with hEPO mRNA, Lipid:DSPC:Cholesterol:DMG-PEG2k 50:10:38.5:1.5 mol % (ALC-0315: 46.3:9.4:42.7:1.6), N:P ratio 6, HEPES/sodium chloride/sucrose buffer, stored at −80C
[11] = Table 11, Lipid:DSPC:Cholesterol:DMG-PEG2k 50:10:38.5:1.5 mol % (ALC-0315: 46.3:9.4:42.7:1.6), HEPES/sodium chloride/sucrose buffer, stored at −80C
[12] = Table 5, LNP 60:0:38.5:1.5 mol %, hEPO mRNA, N:P 6
[13] = Table 5, LNP 60:0:38.5:1.5 mol %
[14] = Table 1, LNP lipid:DSPC:Cholesterol:DMG-PEG2k 50:10:38.5:1.5 mol %, hEPO mRNA, N:P 6
[15] = Table 3, LNP 50:10:38.5:1.5 mol %, hEPO mRNA, N:P 6
[16] = Table 1, LNP lipid:DSPC:Cholesterol:DMG-PEG2k 50:10:38.5:1.5 mol %
[17] = Table 6, LNP 50:10:38.5:1.5 mol %, hEPO mRNA, N:P 6
[18] = Table 6, LNP 60:0:38.5:1.5 mol %, hEPO mRNA, N:P 6
[19] = Table 9, LNP 50:10:38.5:1.5 mol %, hEPO mRNA, N:P 6
[20] = Table 10, LNP with hEPO mRNA, Lipid:DSPC:Cholesterol:DMG-PEG2k 50:10:38.5:1.5 mol %, N:P ratio 6, DLS
[21] = Table 10, Lipid:DSPC:Cholesterol:DMG-PEG2k 50:10:38.5:1.5 mol %
[22] = Table 10, LNP with hEPO mRNA, Lipid:DSPC:Cholesterol:DMG-PEG2k 50:10:38.5:1.5 mol %, N:P ratio 6, Ribogreen assay

- PDI [1, 4]: 0.236
- Size [1, 5]: 53.7 nm
- Zeta potential [2, 6]: −6.511 mV
- Encapsulation Efficiency % [3, 4]: 99.8%
SMILES: CCCCCCCCCCCCC(CC)C(=O)OCCN(CCOC(=O)C(CC)CCCCCCCCCCCC)C(=O)C(C)N (stereo not shown) [Compound 613]

- PDI [1, 7]: 0.301
- Size [1, 8]: 110.9 nm
- Zeta potential [2, 9]: −12.2 mV
- Encapsulation Efficiency % [3, 7]: 99.2%
SMILES: CCCCCCCCCC(CCCCCCCC)C(=O)OCCN(CCOC(=O)C(CCCCCCCC)CCCCCCCCC)C(=O)CCCN(C)C.Cl (stereo not shown) [Compound 933]

- PDI [1, 10]: 0.099
- Size (nm) [1, 10]: 69.1 nm
- Zeta potential (mV) [2, 11]: 0.0 mV
- Encapsulation Efficiency % [3, 10]: 99.4%
SMILES: CCCCCCCCC(CCCCCC)C(=O)OCCN(CCOC(=O)C(CCCCCC)CCCCCCCC)C(=O)C(C)CCNCCC.Cl (stereo not shown) [Compound 987h]

- Size [1, 5]: 68.9 nm
- Zeta potential [2, 6]: −12.44 mV
- Encapsulation Efficiency % [3, 4]: 99.7%
SMILES: CCCCCCCCCC(CCCCCCCCC)C(=O)OCCN(CCOC(=O)C(CCCCCCCCC)CCCCCCCCC)C(=O)CN [Compound 607]

- PDI [1, 4]: 0.102
- PDI [1, 12]: 0.15
- Size [1, 12]: 236.6 nm
- Size [1, 5]: 208.5 nm
- Zeta potential [2, 6]: −7.347 mV
- Zeta potential [2, 13]: −3.753 mV
- Encapsulation Efficiency % [3, 4]: 99.3%
- Encapsulation Efficiency % [3, 12]: 98%
SMILES: CCCCCCCC(CCCCCCC)C(=O)OCCN(CCOC(=O)C(CCCCCCC)CCCCCCC)C(=O)CN [Compound 604]

- PDI [1, 14]: 0.217
- Size [1, 14]: 72.6 nm
- PDI [1, 15]: 0.256
- Size ([1]; Table 3, LNP lipid:DSPC:Cholesterol:DMG-PEG2k 50:10:38.5:1.5 mol %, hEPO mRNA, N:P 6): 162.2 nm
- PDI [1, 4]: 0.104
- PDI [1, 12]: 0.198
- Size [1, 12]: 146.3 nm
- Size [1, 5]: 166.9 nm
- Zeta potential [2, 16]: −4.852 mV
- Zeta potential [2, 6]: −5.091 mV
- Zeta potential [2, 13]: −8.315 mV
- Encapsulation Efficiency % [3, 14]: 91.3%
- Encapsulation Efficiency % [3, 15]: 99.9%
- Encapsulation Efficiency % [3, 4]: 99.6%
- Encapsulation Efficiency % [3, 12]: 99.3%
SMILES: CCCCCCCCC(CCCCCC)C(=O)OCCN(CCOC(=O)C(CCCCCC)CCCCCCCC)C(=O)CN (stereo not shown) [Compound 105]

- PDI [1, 7]: 0.142
- Size [1, 8]: 87.2 nm
- Zeta potential [2, 9]: −8.7 mV
- Encapsulation Efficiency % [3, 7]: 99.9%
SMILES: CCCCCCCCC(CCCCCC)C(=O)OCCN(CCOC(=O)C(CCCCCC)CCCCCCCC)C(=O)C(C)CNC.Cl (stereo not shown) [Compound 924]

- PDI [1, 14]: 0.321
- Size [1, 14]: 87.1 nm
- Zeta potential [2, 16]: 6.281 mV
- Encapsulation Efficiency % [3, 14]: 90.5%
SMILES: CCCCCCCCCCCC(=O)OCCN(CCOC(=O)CCCCCCCCCCC)C(=O)C(N)CO (stereo not shown) [Compound 134]

- PDI [1, 17]: 0.224
- PDI [1, 18]: 0.195
- Size [1, 18]: 87.6 nm
- Size ([1]; Table 6, LNP lipid:DSPC:Cholesterol:DMG-PEG2k 50:10:38.5:1.5 mol %, hEPO mRNA, N:P 6): 104.5 nm
- Zeta potential ([2]; Table 6, LNP 50:10:38.5:1.5 mol %): −1.8 mV
- Zeta potential ([2]; Table 6, LNP 60:0:38.5:1.5 mol %): 0.1 mV
- Encapsulation Efficiency % [3, 17]: 98.4%
- Encapsulation Efficiency % [3, 18]: 98.4%
SMILES: CCCCCCCCC(CCCCCC)C(=O)OCCN(CCOC(=O)C(CCCCCC)CCCCCCCC)C(=O)CC(C)N (stereo not shown) [Compound 802]

- PDI [1, 19]: 0.079
- Size ([1]; Table 9, LNP Lipid:DSPC:Cholesterol:DMG-PEG2k 50:10:38.5:1.5 mol %, hEPO mRNA, N:P 6): 88 nm
- Zeta potential ([2]; Table 9, LNP 50:10:38.5:1.5 mol %): −20.89 mV
- Encapsulation Efficiency % [3, 19]: 99.7%
SMILES: CCCCCCCCC(CCCCCC)C(=O)OCCN(CCOC(=O)C(CCCCCC)CCCCCCCC)C(=O)CN1CCCC1.Cl (stereo not shown) [Compound 960c]

- PDI [1, 20]: 0.096
- Size (nm) [1, 20]: 122 nm
- Zeta potential (mV) [2, 21]: −3.3 mV
- Encapsulation Efficiency % [3, 22]: 60.3%
SMILES: CCCCCCCCC(CCCCCC)C(=O)OCCN(CCOC(=O)CCCCCCC(C)C)C(=O)CCN(CC)CC (stereo not shown) [Compound 917d]

- PDI [1, 20]: 0.295
- Size (nm) [1, 20]: 61.4 nm
- PDI [1, 10]: 0.280
- Size (nm) [1, 10]: 74.7 nm
- Zeta potential (mV) [2, 21]: −10.3 mV
- Zeta potential (mV) [2, 11]: −7.5 mV
- Encapsulation Efficiency % [3, 22]: 83.8%
- Encapsulation Efficiency % [3, 10]: 91.0%
SMILES: CCCCCCCCC(CCCCCC)C(=O)OCCCCCCN(CCCCO)CCCCCCOC(=O)C(CCCCCC)CCCCCCCC (stereo not shown) [ALC-0315, reference compound]

- Size [1, 14]: 105.4 nm
- Zeta potential [2, 16]: 8.346 mV
- Encapsulation Efficiency % [3, 14]: 93.1%
SMILES: CCCCCCCCCCCC(=O)OCCN(CCOC(=O)CCCCCCCCCCC)C(=O)C(N)CCCCN (stereo not shown) [Compound 121]
